Assay results: patent US10350272B2, “Calcitonin analogues for treating diseases and disorders” (KeyBioscience AG, priority 2015, dated 2019)
Where no end group is shown, it is not given here.

Columns and labels:
[1] = test system: liver sections from HFD-fed rats; experiment: Oil-Red-O staining of frozen liver sections; format: in vivo, rat
Experimental: At termination of the study of Example 2 the rat livers were embedded using snap freezing in OCT, and then sectioned using a cryomicrotome. Sections were prepared from four groups, KBP-042 in HFD rats, KBP-089 in HFD rats, control HFD rats, and a lean rat comparison.
The sections were stained using Oil-Red-O staining. […] The lipid accumulation in pair-fed KBP-089 liver exceeded KBP-089 treated rats with 66.5% (p<0.001) and was not significant different from vehicle (0.6711). Statistical test performed was one-way ANOVA with Dunnet's post test for multiple comparisons. **p<0.01, ***p<0.001.

[2] = amylin dosage 100 μg kg^−1, compared with saline; cited from earlier work
rats = conditions: s.c., single dose 1000 mU/rat or 0.5-50 mU/rat over 12 weeks, dose dependently; cited from earlier work
cultured rat hepatocytes = conditions: cited from earlier work

## AcCSNLSTCMLGRLSQDLHRLQTYPKTDVGANAP-NH2 (Ac-CSNLSTCMLGRLSQDLHRLQTYPKTDVGANAP-NH2; ends and bridges not checked) [KBP-089]
[1]; 2.5 μg/kg, p<0.001
  excess of lipid accumulation in pair-fed KBP-089 liver over KBP-089 treated rats (Oil-Red-O): 66.5%
[1]; HFD rats, 2.5 μg/kg daily
  decrease of HFD-induced lipid accumulation in liver compared to vehicle (Oil-Red-O): 155.3%

## amylin (KCNTATCATQRLANFLVRSSNNLGPVLPPTNVGSNTY; ends and bridges not checked; cysteine pairing not given here; UniProt P12969 38-74, looked up) [amylin administered alone in Kusakabe et al (2011), reference compound]
[2]
  tissue triglyceride content: neither L nor A decreased

## salmon calcitonin [synthetic salmon calcitonin]
rats
  serum cholesterol levels: reduced
  serum lipoprotein levels: reduced
  serum triglyceride levels: reduced
Cultured rat hepatocytes
  incorporation of acetate into cholesterol and triglycerides: reduced

B1: leptin (protein, UniProt P50596 22-167, looked up)
Leptin: VPIHKVQDDTKTLIKTIVTRINDISHTQSVSARQRVTGLDFIPGLHPILSLSKMDQTLAVYQQILTSLPSQNVLQIAHDLENLRDLLHLLAFSKSCSLPQTRGLQKPESLDGVLEASLYSTEVVALSRLQGSLQDILQQLDLSPEC
notes: leptin administered alone in Kusakabe et al (2011)
[2]
  tissue triglyceride content: neither L nor A decreased
